{
  "source": "patent US20070293485A1",
  "about": "“DRUG ADMINISTRATION METHODS” (priority 2006, published 2007)",
  "key": {"[1]": {"system": "xenograft tumor", "assay": "Xenograft tumor growth models (preclinical)", "format": "in vivo"}, "[2]": {"system": "advanced solid tumors or lymphomas", "assay": "Phase I study, one or two hour infusion: response by RECIST, disease stabilization", "format": "in vivo, human", "method": "(§1) Eligible patients with advanced solid tumors or lymphomas whose tumors had progressed on, or for whom there are no standard therapies, receive Compound A in successive dose cohorts at: 10, 20, 40, 80 and 160 mg/m^2. Dosing is by one or two hour intravenous infusion daily for five consecutive days repeated on a three week cycle. […] Response by RECIST is determined after every 2 cycles."}, "[3]": {"system": "protein-rDNA quadruplex interaction", "assay": "Inhibition of rRNA biogenesis in cancer cells", "format": "cell-based"}, "[4]": {"system": "patients with advanced solid tumors or lymphomas", "assay": "Phase I study, one or two hour intravenous infusion daily for five consecutive days on a three week cycle: adverse events, DLT, MTD", "format": "in vivo", "method": "Dosing is by one or two hour intravenous infusion daily for five consecutive days repeated on a three week cycle. […] Response by RECIST is determined after every 2 cycles."}, "[5]": {"assay": "Drug resistance in vitro", "format": "cell-based"}, "[6]": {"assay": "Phase I study, one or two hour infusion: plasma pharmacokinetics", "format": "in vivo, human", "method": "The objectives of the study described hereafter are to determine the maximum tolerated dose (MTD) and dose limiting toxicities (DLTs), to establish the pharmacokinetics (PKs), and to determine the recommended dose for further clinical development of Compound A.\nas §1"}, "[7]": {"system": "malignant cells", "assay": "Apoptosis in malignant cells in vitro", "format": "cell-based"}, "[8]": {"system": "patients with advanced solid tumors", "assay": "Phase I study, daily intravenous infusion (one to six hours) on first five days of a three week cycle: adverse events, DLT, MTD", "format": "in vivo", "source_text": "Compound A is designed to inhibit over-expressed ribosomal RNA synthesis in cancer cells by disrupting an essential protein-rDNA quadruplex complex thereby inducing selective apoptosis. A Phase I clinical trial for Compound A has been undertaken to determine the dose limiting toxicities (DLTs), maximum tolerated dose (MTD) and pharmacokinetics (PK) of this agent with administration by infusion for about six hours per day.\n(§2) Eligible patients with advanced solid tumors received Compound A in successive dose cohorts at: 10, 20, 40, 80, 160, 240, 360 and 480 mg/m^2. Drug is administered by daily intravenous infusion on the first five consecutive days of a three week cycle and the infusion duration has varied from one hour to six hours. Response by RECIST is determined after every 2 cycles."}, "[9]": {"system": "human blood cells", "assay": "Wash off of bound drug from blood cells with fresh plasma", "format": "in vitro ADME", "conditions": "one, two and four washes", "method": "(§3) To test if this binding also occurs with human blood cells, an in vitro experiment was conducted with human whole blood spiked with Compound A concentrations of 1, 5, 10, and 50 μM. […] Results of the analysis of whole blood and plasma are illustrated in FIG. 7. The permanence of the binding was studied by attempting to “wash off” bound drug with fresh plasma. […] This reversible binding to blood cells is the reason for the observed extended plasma terminal half life. The ability of fresh plasma to wash off Compound A from blood cells after one, two and four washes is illustrated in FIGS. 8, 9, and 10, respectively."}, "[10]": {"system": "human blood cells", "assay": "Human whole blood spiked with Compound A in vitro: binding to blood cells", "format": "in vitro ADME", "method": "as §3"}, "[11]": {"assay": "Phase I study: pharmacokinetics in plasma, whole blood and urine of patients", "format": "in vivo, human", "source_text": "Analysis has determined that Compound A whole blood concentration is nearly ten times that of plasma concentration. The reversible binding and subsequent slow release of Compound A from blood cells provides a “reservoir” effect to extend the Compound A plasma terminal half life. Further details of these observations are described in an Example that follows. This pharmacokinetic property allows consideration of a less frequent dosing schedule, and a phase I study of weekly intravenous Compound A administration is being implemented.\nPharmacokinetic analyses of plasma samples collected on Day 1 and Day 5 of dosing for every patient were performed in cohort batches during the conduct of the phase I study of Compound A in refractory solid tumors and lymphomas (Protocol C3-05-001). […] Saturation of elimination was an unlikely cause of the extended half life because there was no apparent accumulation of drug in plasma.\nThe pharmacokinetic sampling procedure in the phase I clinical trial was amended to allow for whole blood and plasma to be collected from study patients. When these samples were analyzed, the binding of Compound A to blood cells was again evident."}, "[12]": {"system": "advanced solid tumors", "assay": "Phase I study, infusion up to six hours: response by RECIST, disease stabilization", "format": "in vivo, human", "method": "as §2"}},
  "note": "“Also recorded” adds a separate entry of the source.",
  "data": [
    {"smiles": "CN1CCCC1CCNC(=O)c1cn2c3c(c(N4CCC(c5cnccn5)C4)c(F)cc3c1=O)Oc1cc3ccccc3cc1-2", "note": "(stereo not drawn) [Compound A]", "values": [
      {"measurement": "suppression of xenograft tumor growth", "setting": "[1]", "value": "potency in suppressing xenograft tumor growth with a broad therapeutic window"},
      {"measurement": "longest period of stable disease to date", "setting": "[2]; 10-160 mg/m^2", "value": 24, "unit": "weeks"},
      {"measurement": "patients with disease stabilization of longer than / at least four months", "setting": "[2]; 10-160 mg/m^2, 21 patients", "value": "three"},
      {"measurement": "patients with stable disease (SD) at evaluation following two cycles", "setting": "[2]; 10-160 mg/m^2, 21 patients", "value": "Six"},
      {"measurement": "objective tumor responses", "setting": "[2]; 10-160 mg/m^2, 21 patients, RECIST after every 2 cycles", "value": "No objective tumor responses"},
      {"measurement": "median duration of disease stabilization", "setting": "[2]; six patients with stable disease", "value": 14, "unit": "weeks"},
      {"measurement": "effect on rRNA biogenesis", "setting": "[3]", "value": "directly inhibits aberrant rRNA biogenesis"},
      {"measurement": "tolerability of doses", "setting": "[4]; 10, 20, 40, 80 and 160 mg/m^2, one or two hour iv infusion daily x5, three week cycle, 21 patients", "value": "well tolerated"},
      {"measurement": "drug-related serious adverse events", "setting": "[4]; 10-160 mg/m^2", "value": "No drug-related serious adverse events"},
      {"measurement": "grade 3 adverse events deemed related to Compound A", "setting": "[4]; 10-160 mg/m^2, 21 patients", "value": "none"},
      {"measurement": "grade 3 adverse events reported during the study", "setting": "[4]; 10-160 mg/m^2, 21 patients", "value": "nine"},
      {"measurement": "severity of adverse events deemed at least possibly related to drug", "setting": "[4]; all studied dose levels 10-160 mg/m^2", "value": "grade 1 or 2"},
      {"measurement": "maximum tolerated dose (MTD)", "setting": "[4]; highest dose 160 mg/m^2, one or two hour infusion", "value": "not yet been defined"},
      {"measurement": "cough during infusion", "setting": "[4]; one-hour infusion, 160 mg/m^2, resolved spontaneously upon completion of infusion", "value": "transient grade 1 cough"},
      {"measurement": "cough after extending the infusion duration", "setting": "[4]; two hour infusion, 160 mg/m^2", "value": "the cough resolved"},
      {"measurement": "dose limiting toxicities", "setting": "[4]; up to 160 mg/m^2", "value": "no observations to date of dose limiting toxicities"},
      {"measurement": "drug resistance", "setting": "[5]", "value": "no drug resistance has been observed"},
      {"measurement": "linearity of PK parameters (AUC) with dose level", "setting": "[6]; day 1 of dosing, dose cohorts 10-160 mg/m^2", "value": "linearity; also recorded: linear pharmacokinetic behavior"},
      {"measurement": "half-life", "setting": "[6]; human, plasma, intravenous, following the first dose (day 1), across all dose levels 10-160 mg/m^2, read-out: plasma terminal half life (converted)", "value": "~10", "unit": "h"},
      {"measurement": "maximum plasma concentration (Cmax), effect of extending infusion", "setting": "[6]; infusion extended to 2 hours at 160 mg/m^2", "value": "decreased"},
      {"measurement": "induction of apoptosis", "setting": "[7]", "value": "rapidly induces selective apoptosis"},
      {"measurement": "MTD", "setting": "[8]; daily iv infusion x5 days, three week cycle, infusion up to six hours", "value": 360, "unit": "mg/m^2"},
      {"measurement": "tolerability", "setting": "[8]; in vivo", "value": "well tolerated"},
      {"measurement": "permanence of binding to blood cells", "setting": "[9]", "value": "easily reversible"},
      {"measurement": "saturability of binding to human blood cells", "setting": "[10]; even at 50 μM", "value": "not saturable"},
      {"measurement": "binding to human blood cells", "setting": "[10]; human whole blood spiked with 1, 5, 10, and 50 μM", "value": "concentration dependent binding"},
      {"measurement": "urinary clearance rate", "setting": "[11]; calculated from a 12-hour quantitative urine collection", "value": "10 % of the glomerular filtration rate"},
      {"measurement": "plasma terminal half life, trend", "setting": "[11]; patients, Day 5 vs Day 1 and dose escalation", "value": "increase with repeated dosing and with each dose level escalation"},
      {"measurement": "saturability of blood cell binding", "setting": "[11]; patients, comparing Day 1 and Day 5", "value": "did not appear to be saturable"},
      {"measurement": "whole blood concentration relative to plasma concentration", "setting": "[11]; patients, on Day 1 and on Day 5", "value": "approximately ten"},
      {"measurement": "accumulation in plasma concentration", "setting": "[11]; patients, repeated dosing", "value": "without significant accumulation"},
      {"measurement": "binding to blood cells", "setting": "[11]; patients, whole blood and plasma specimens", "value": "bind reversibly to blood cells"},
      {"measurement": "route of elimination", "setting": "[11]; urine", "value": "eliminated unchanged in urine"},
      {"measurement": "duration of stable disease", "setting": "[12]; 10 mg/m^2, one patient with prostate cancer", "value": "six"},
      {"measurement": "duration of stable disease", "setting": "[12]; 160 mg/m^2 (internal dose escalation from 80 mg/m2), one patient with anorectal cancer", "value": "twelve"},
      {"measurement": "duration of stable disease", "setting": "[12]; 160 mg/m^2, one patient with liposarcoma", "value": "six"},
      {"measurement": "cycles completed, patient remains on-study", "setting": "[12]; 240 mg/m^2 (internal dose escalation from 40 mg/m^2), one patient with neuroendocrine islet cell cancer of the pancreas", "value": 26, "unit": "cycles"},
      {"measurement": "patients with stable disease for longer than four months", "setting": "[12]; 42 patients, 10-480 mg/m^2", "value": "Four"},
      {"measurement": "patients with disease stabilization for longer than one year", "setting": "[12]; 42 patients, continuing on study", "value": "one"}
    ]}
  ]
}
